Assays:
[1] = tested on: L1210 murine leukemia cells; experiment: L1210 murine leukemia model, survival of tumor-bearing mice; format: in vivo, BDF1 mice; settings: mitomycin C 40 ug IP day 6 followed by CRX-527-AF 100 ug IP day 7; compared to either component alone; through day 54
Protocol: To investigate whether a combination treatment consisting of the chemotherapeutic mitomycin C and the AGP CRX-527 would prolong survival of cancer-bearing mice better than either treatment alone, BDF1 mice (10 per group) that had been seeded with L1210 murine leukemia cells (10^4 tumor cells via the intraperitoneal (IP) route) on day 0 were treated with, 1) nothing (untreated control), 2) an intraperitoneal injection of mitomycin C (40 ug) on day 6, 3) an IP injection of CRX-527-AF (100 ug CRX-527 in Aqueous Formulation (AF), which is 0.02% dipalmitoyl phosphatidyl choline in water) on day 7, or 4) an IP injection of mitomycin C on day 6 followed by an IP injection of CRX-527-AF on day 7. Survival curves through day 54 are presented for each group in FIG. 1.

[2] = tested on: Mouse Ovarian Tumor (MOT) cells; experiment: Mouse Ovarian Tumor (MOT) model, survival, wild-type TLR4 mice; format: in vivo, C3H/FeJ, C3H/HeOuJ, C3H/HeN mice; settings: for protection (survival): 1 and 10 ug doses IP day 7 after mitomycin C day 6
Protocol: To determine whether the timing of administration of the chemotherapeutic and TLR4 ligand is important for the anti-cancer response, C3H/FeJ mice (10 per group) seeded with Mouse Ovarian Tumor (MOT) cells (10^4 tumor cells via the IP route) on day 0 were treated with, 1) nothing (untreated control), 2) mitomycin C (40 ug) on day 6, 3) CRX-527-SE (10 ug in a Stable Emulsion formulation containing 2% squalene oil-in-water) on day 4 followed by mitomycin C on day 6, 4) CRX-527-SE on day 5 followed by mitomycin C on day 6, 5) both CRX-527-SE and mitomycin C on day 6, 6) mitomycin C on day 6 followed by CRX-527-SE on day 7, 7) mitomycin C on day 6 followed by CRX-527-SE on day 10, and 8) mitomycin C on day 6 followed by CRX-527-SE on day 11. The dose/route for mitomycin C and CRX-527-SE administration was always 40 ug IP and 10 ug IP, respectively.
The effect of formulation for the anti-cancer activity observed with CRX-527 was evaluated in the MOT tumor model. In the experiment shown in FIG. 5, C3H/HeN mice (wild-type TLR4, 10 per group) were seeded with MOT tumor (10^4 tumor cells IP) on day 0. Mitomycin C (40 ug IP) was administered on day 6, and 1 or 10 ug CRX-527 formulated in AF (Aqueous Formulation=0.02% dipalmitoyl phosphatidyl choline in water), IN (Intranasal Formulation=2% glycerol in water) or SE (Stable Emulsion=2% squalene oil-in-water) was administered via the IP route on day 7. […] The results of this experiment indicate that the potency of CRX-527 in this model can be enhanced through formulation.
Group size was 10 in this experiment. […]

[3] = tested on: Mouse Ovarian Tumor (MOT) cells; experiment: MOT model in TLR4 mutant (non-responder) mice, survival; format: in vivo; settings: MOT-bearing C3H/HeJ TLR4 mutant mice
B16-F10 melanoma cells [4] = experiment: B16-F10 melanoma lung metastasis, lung tumor burden; format: in vivo, BDF1 mice; settings: CRX-527-SE 10 ug IV and cyclophosphamide 4 mg IP on day 1
Protocol: In further experimentation, B16-F10 melanoma cells transfected with green fluorescent protein were used to quantify metastasis of the tumor to the lungs of mice. Because green fluorescent protein allows quantification of the amount of tumor in the lungs of B16-F10-bearing mice, it was possible to evaluate the efficacy of various treatment regimens using lung tumor burden as the read-out. BDF1 mice were seeded with B16-F10 melanoma cells (1.5×10^3 IV) on day 0. […] On day 26, the mice were sacrificed and their lungs were collected. The lungs from each mouse were photographed and then homogenized so that the luciferase activity could be quantified to determine how much B16-F10 tumor was present. […] This observation was confirmed when the lungs were homogenized and evaluated for luciferase activity.

4T1 tumor cells = experiment: 4T1 murine breast cancer model, survival after removal of primary tumor; format: in vivo, BALB/c Mice; settings: cyclophosphamide 3 mg IP and CRX-527 various doses IV on day 15; vs vehicle or cyclophosphamide alone
Protocol: The benefit of combining chemotherapeutic agents with TLR4 ligands such as AGPs was also confirmed in the 4T1 murine breast cancer model. For the experiments conducted using this metastatic cancer model, 4T1 tumor cells (7×10^3 in 50 uL) were injected into the lower mammary gland of each mouse on day 0. The primary tumors were surgically removed on day 14, the mice (10 per group) were treated on day 15 with vehicles, cyclophosphamide (3 mg IP) or cyclophosphamide (3 mg IP) and CRX-527 (various doses IV).

[5] = tested on: CT-26 colorectal tumor cells; experiment: CT-26 syngeneic colon carcinoma model, escalating i.p. doses (Example 9); format: in vivo, Balb/c mice; settings: CRX-527 4, 20, 100 ug per mouse i.p. biweekly
From the text: The CT26 mouse colon carcinoma (CT26.WT; ATCC #CRL-2638) cell line was obtained from ATCC. It is an N-nitroso-N-methylurethane-(NNMU) induced, undifferentiated colon carcinoma cell line known in the art. For example, it is described in: Wang M, et al. Active immunotherapy of cancer with a nonreplicating recombinant fowlpox virus encoding a model tumor-associated antigen. J. Immunol. 154: 4685-4692, 1995 (PubMed: 7722321), which is incorporated by reference in its entirety herein. For preparation of tumor cells, A frozen (−140° C.) vial of CT-26 (mouse colon carcinoma cells), from ATCC (cat # CRL-2638, lot #59227052) are thawed and cultured in basic RPMI (with 10% FBS) media over the following week.
CT-26 cells (passage 12) are harvested from the flask in complete medium. Cells are centrifuged and resuspended in RPMI (without FBS), this step is repeated 3 times. Cell density and viability are checked via trypan blue exclusion. Cells are then diluted to desired density (5×10^5 cells per mL) and kept on ice.
Escalating doses of CRX 527 are evaluated for their efficacy in reducing tumor growth. Animals are weighed and innoculated on the right hind quarter with 0.5×10^5 CT26 tumor cells per mouse on Day 0. A total of 130 mice are inoculated with tumor cells—assuming 30% failure rate (either too big or too small at time of start of study), the goal is to have n=10 for each group. After tumor cell innoculation, tumor growth and total body weight are measured 3 times a week for the duration of the study. Randomization occurs on day 10 or 11 when the average tumor volume is approximately 100 mm^3. Begining on the day of randomization, animals are dosed with CRX 527 or vehicle i.p. biweekly, for a total of 6 doses. Mice remain on study until tumors reach >2000 cu mm for two consecutive measurements, they are removed from study for other reasons (i.e. weight loss >20%, ulceration on tumor, etc.) or until the end of the study. After euthanization the tumors may be removed and subject to dissociation for flow analysis and/or FFPE for IHC analysis.
The above protocol was used to generate the results in FIG. 17 at the dosages indicated. In almost every case, Balb/c mice that were inoculated with 0.5×10^5 CT-26 colorectal tumor cells on the right hind quarter developed tumors that, when treated i.p. with vehicle (2% glycerol) only, and progressed as expected. […] FIG. 17.

[6] = tested on: Mouse Ovarian Tumor (MOT) cells; experiment: Mouse Ovarian Tumor (MOT) model, survival, wild-type TLR4 mice; format: in vivo, C3H/FeJ, C3H/HeOuJ, C3H/HeN mice
B16-F10 melanoma cells [7] = experiment: B16-F10 murine melanoma model, survival; format: in vivo, BDF1 mice; settings: cyclophosphamide alone 3 mg IP on day 5
Protocol: The efficacy of combination therapy with a chemotherapeutic agent and an AGP was also tested in a murine melanoma model using a non-immunogenic tumor called B16-F10. In these experiments, BDF1 mice were seeded with B16-F10 melanoma cells (1.5×10^3 IV) on day 0. At various time thereafter, cancer-bearing mice were treated with cyclophosphamide (aka Cytoxan) alone (3 mg IP), CRX-527-IN (10 ug) alone or a combination of the two agents.

CCCCCCCCCCC[C@H](CC(=O)N[C@H]1[C@H](OC[C@H](NC(=O)C[C@@H](CCCCCCCCCCC)OC(=O)CCCCCCCCC)C(=O)O)O[C@H](CO)[C@@H](OP(=O)(O)O)[C@@H]1OC(=O)C[C@@H](CCCCCCCCCCC)OC(=O)CCCCCCCCC)OC(=O)CCCCCCCCC [CRX-527]
survival [1]: significantly prolonged survival | dose required to induce a high level of protection ([2]; AF formulation (0.02% dipalmitoyl phosphatidyl choline in water), IP day 7 after mitomycin C day 6): 10 µg | survival times ([2]; C3H/FeJ mice, CRX-527-SE 10 ug IP at the same time as or up to 5 days after mitomycin C 40 ug IP (day 6), vs untreated, mitomycin alone or CRX527-SE followed by mitomycin C): significantly prolonged survival times | survival ([2]; C3H/HeN mice, CRX-527 1 or 10 ug IP day 7, one day after mitomycin C 40 ug IP): prolonged survival | potency compared to the AF formulation ([2]; IN formulation (2% glycerol in water), IP day 7 after mitomycin C day 6): enhanced potency | protection (survival) ([2]; IN formulation): highly effective | potency compared to the AF formulation ([2]; SE formulation (2% squalene oil-in-water), IP day 7 after mitomycin C day 6): enhanced potency | protection (survival) ([2]; SE formulation): highly effective | survival ([2]; both mitomycin C and CRX-527, compared to either component alone): significantly prolonged survival | survival [3]: did not promote survival | luciferase activity in homogenized lungs (B16-F10 melanoma cells [4]; day 26, vs vehicle or either agent alone): significantly less luciferase activity | lung tumor burden by visual examination (B16-F10 melanoma cells [4]; lungs collected day 26): lower lung tumor burden than any other group | survival times (4T1 tumor cells): longer survival times | survivability [5]: Dose dependence was also seen | tumor growth ([5]; 6 doses, compared to vehicle (2% glycerol)): inhibited tumor growth in a dose dependent manner | survival ([6]; C3H/HeOuJ wild-type mice, alone or in combination with mitomycin C): promoted survival | resistance to re-challenge with the same tumor ([6]; mice cured of MOT tumor by combination treatment with mitomycin C and CRX-527, compared to naive control mice): resistant to re-challenge

O.O=P1(N(CCCl)CCCl)NCCCO1 (stereo not shown) [cyclophosphamide, 2-[bis(2-chloroethyl)amino]tetrahydro-2H-1,3,2-oxazaphosphorine 2-oxide monohydrate]
survival (B16-F10 melanoma cells [7]): modest prolongation

CO[C@@]12[C@H](COC(N)=O)C3=C(C(=O)C(C)=C(N)C3=O)N1C[C@@H]1N[C@@H]12 [mitomycin C, reference compound]
survival ([2]; C3H/HeN mice, mitomycin C alone 40 ug IP day 6, compared to no treatment control): small increase in survival

From US10765690B2, “TLR4 agonists and compositions thereof and their use in the treatment of cancer” (GlaxoSmithKline Intellectual Property Development Limited, priority 2015, dated 2020)
